Source: patent US12473295B2, “Substituted straight chain spiro derivatives” (Janssen Pharmaceutica NV, priority 2019, dated 2025)
Structures can show the parent of a compound that is named as a salt.

Key:
[1] = test system: iCell Cardiomyocytes2; assay: Ca2+-fluorescence assay in human pluripotent stem cell-derived cardiomyocytes (CTCM human), iCell Cardiomyocytes2; assay type: cell-based; design: key: Green: No concern; Yellow: Low concern; Red: High concern; Black: Very high concern due to arrhythmic events; conditions: 30 min; for Color @ 0.1 μM (hazard score): iCell Cardiomyocytes2, 0.1 μM; for Color @ 1 μM (hazard score): iCell Cardiomyocytes2, 1 μM
Description: (§1) 7) Cardio-Electrophysiological Effects of the Testing Compounds in Synchronously Beating Human Pluripotent Stem Cell-Derived Cardiomyocytes (hSC-CMs) Using a Ca^2+-Fluorescence Assay (CTCM Human)
(§2) Compounds were tested in the 96-well plates
Compounds were tested at 0.1 μM, 0.2 μM, 0.5 μM, 1 μM, 2.5 μM and 5 μM (n=4 per dose) on Cor.4U 9-Cardiomyocytes or on iCell® Cardiomyocytes2
Alternatively, compounds were tested at 0.1 μM, 0.3 μM; 1 μM, 3 μM, 10 μM and 30 μM (n=4 per dose) mostly on iCell® Cardiomyocytes2
(§3) Dimethylsulfoxide (DMSO). The solutions of the compound in DMSO or its solvent (final concentration of 0.1% DMSO; n=8)
(§4) Preparation of Test Article and Controls
(§5) Tested compounds were dissolved in DMSO at 1000-fold the intended concentrations. A compound “mother-plate” was made, containing the test compounds and positive and negative controls at 1000-fold the final concentrations. At the experiment day, these stock solutions were diluted with Tyrode (Sigma), supplemented with 10 mM HEPES (Gibco), to 2-fold the intended concentration (in round bottom compound plates). Final DMSO concentration in test solutions and vehicle control was 0.1%.
Second line hSC derived cardiomyocyte called iCell®, Cardiomyocytes2 were purchased from FUJIFILM Cellular Dynamics (USA). The experiments with test drugs are carried out 5 to 7 days after plating the cells onto the plate to have a living, beating monolayer of hiPSC-derived cardiomyocytes. The beating monolayer in 96-well-plates are normally taken from 2 Vials of frozen iCell) Cardiomyocytes2 (≈5 million cells/vial), which will be plated onto […] 96-well plates (≈50K/well).
(§6) Before Start of Experiment
(§7) At least one hour before the start of the experiments the normal cell medium was replaced with Tyrode solution with Calcium dye (see below).
(§8) Cal 520 dye (AAT Bioquest) was dissolved in 11 ml of Tyrode supplemented with 10 mM HEPES and warmed up to 37° C. before adding to the cells.
(§9) 35 μl cell culture medium was removed from each well and replaced with 35 μl of pre-warmed Cal 520 dye solution and cell plate was incubated for 45 min at 37° C./5% CO2. Cells were incubated for 5 min at 37° C.
(§10) Spontaneous electrical activity is recorded, using Cal520™ (AAT Bioquest) calcium fluorescence-dye signaling. This dye integrates the total intracellular calcium activity over the whole well. A bottle of Cal520 dye (50 μg, MW: 1103/mol) is dissolved with 50 μl DMSO as a stock solution of 0.9 mM. 50 μL of the stock solution of the dye was added to 10 ml Tryodes solution to have dye concentration of 4.5 μM. Subsequently, 35 μl of this dye solution was added into each well, to have a final dye concentration of 1.58 μM. The current dye protocol on this CTCM human assay was established recently (Ivan Kopljar et al, Journal of Pharmacological and toxicological methods 2018. 91: 80-86; Lu et al., Tox Sci 2019. 170 (2): 345-356).
(§11) Fluorescent signals (Ca^2+ transient morphology) were measured using the Functional Drug Screen System (FDSS/μCell; Hamamatsu, Japan) and the recordings were subsequently analyzed off-line, using appropriate software e.g. Notocord.
(§12) The cell plate was loaded into the FDSS/μCell for a test run: Ca^2+ transients were measured for 4 minutes to check for synchronous beating of the cardiomyocytes in each well. All 96 wells were measured simultaneously (sampling interval: 0.06 s, short exposure time: 10 ms; excitation wavelength 480 nm; emission wavelength 540 nm; FDSS/μCell warmed to 37° C.).
(§13) During the compound addition step, 100 μl of the respective double-concentrated test solutions was pipetted into each well simultaneously.
(§14) Data were analyzed off-line using appropriate software e.g. Notocord-Hem (version 4.3).
The following parameters of the Ca^2′ transient morphology were measured: • beat rate (BR) • amplitude of the Ca^2+ transient (Amp), • CTD90: Ca^2+ transient duration at 90% (time to 90% of the initial base value). […]

[2] = test system: OCI-AML3 tumors; assay: Efficacy study in disseminated OCI-AML3 model (survival); assay type: in vivo, mouse; conditions: disseminated OCI-AML3, SCID beige mice, vehicle 38.5 days
[3] = target: hERG potassium channel (IKr) (Homo sapiens (Human), UniProt Q12809); assay: Effect on membrane potassium current IKr in hERG transfected CHO cells, Protocol 1 (QPatch); assay type: cell-based; conditions: human, CHO cells stably expressing the hERG potassium channel, pH 7.4
Chain of hERG potassium channel (IKr) (Q12809 whole entry): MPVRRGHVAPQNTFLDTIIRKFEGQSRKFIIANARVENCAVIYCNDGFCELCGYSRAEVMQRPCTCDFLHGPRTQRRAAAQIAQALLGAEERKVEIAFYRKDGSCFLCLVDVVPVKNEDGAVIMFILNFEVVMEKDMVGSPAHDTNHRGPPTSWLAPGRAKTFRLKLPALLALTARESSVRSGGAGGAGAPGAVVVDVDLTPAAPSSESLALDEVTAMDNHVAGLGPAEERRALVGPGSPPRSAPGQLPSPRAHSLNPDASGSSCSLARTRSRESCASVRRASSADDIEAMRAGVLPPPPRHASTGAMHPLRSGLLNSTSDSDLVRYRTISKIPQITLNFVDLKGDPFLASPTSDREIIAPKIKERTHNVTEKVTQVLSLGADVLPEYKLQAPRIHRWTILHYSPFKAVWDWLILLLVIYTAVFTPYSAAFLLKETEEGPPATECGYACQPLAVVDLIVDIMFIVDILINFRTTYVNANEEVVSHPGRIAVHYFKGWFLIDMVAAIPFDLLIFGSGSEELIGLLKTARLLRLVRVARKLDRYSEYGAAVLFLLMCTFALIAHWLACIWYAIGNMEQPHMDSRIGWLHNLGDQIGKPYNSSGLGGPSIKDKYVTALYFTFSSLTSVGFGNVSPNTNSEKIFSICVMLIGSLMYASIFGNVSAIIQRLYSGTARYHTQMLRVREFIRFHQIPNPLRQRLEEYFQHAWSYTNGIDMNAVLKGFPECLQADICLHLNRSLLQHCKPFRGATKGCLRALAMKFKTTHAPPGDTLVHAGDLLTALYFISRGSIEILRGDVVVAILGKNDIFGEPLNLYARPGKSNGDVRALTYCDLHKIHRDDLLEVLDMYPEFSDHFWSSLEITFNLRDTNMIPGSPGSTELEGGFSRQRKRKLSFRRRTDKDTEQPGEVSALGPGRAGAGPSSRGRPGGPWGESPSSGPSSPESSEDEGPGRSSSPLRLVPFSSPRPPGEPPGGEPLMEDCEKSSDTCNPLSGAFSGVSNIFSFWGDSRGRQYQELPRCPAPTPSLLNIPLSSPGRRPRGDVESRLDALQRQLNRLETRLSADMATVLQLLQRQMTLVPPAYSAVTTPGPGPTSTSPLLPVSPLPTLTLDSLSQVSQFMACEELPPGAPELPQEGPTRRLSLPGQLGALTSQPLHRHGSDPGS
How it was run: (§15)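 Whole-cell automated patch clamp on CHO cells stably expressing hERG, held at −80 mV; the value is the tail current at −40 mV after a 2 s step to +60 mV, at pH 7.4 bath and pH 7.2 pipette. After 0.3% DMSO control, compound was applied at 3×10^−7 M, 3×10^−6 M, 10^−5 M and 3×10^−5 M, 5 min each. IC50 comes from a non-linear least-squares fit of block versus vehicle.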

[4] = test system: MOLM14 cells; assay: Proliferation assay (spheroid growth, 8 days), MOLM14; assay type: cell-based, human; conditions: MOLM14, 8 days; hydrochloride; read-out: spheroid assay_OneTime MOLM14 IC50;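 note: spheroid size read as confluence by live-cell imaging, compounds added at a range of concentrations with 0.3% DMSO, DMSO-treated wells = 0%, highest reference dose = low control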
[5] = test system: Cor.4U Cardiomyocytes; assay: Ca2+-fluorescence assay in human pluripotent stem cell-derived cardiomyocytes (CTCM human), Cor.4U Cardiomyocytes; assay type: cell-based; design: key: Green: No concern; Yellow: Low concern; Red: High concern; Black: Very high concern due to arrhythmic events; conditions: 30 min
Description: as §1, §2
Compounds were tested at 0.1 μM, 0.2 μM, 0.5 μM, 1 μM, 2.5 μM and 5 μM (n=4 per dose) on Cor.4U 9-Cardiomyocytes or on iCell® Cardiomyocytes2 […]
as §3, §4, §5
hSC-CMs (Cor.4U® Cardiomyocytes) were obtained from CDI (Ncardia, Germany). Cells are pre-plated and seeded in fibronectin-coated 96-well plates at a density suited to form a monolayer and maintained in culture in a stage incubator (37° C., 5% CO2), according to the instructions of the cell provider.
as §6, §7, §8, §9, §10, §11, §12, §13, §14
The following parameters of the Ca^2′ transient morphology were measured: • beat rate (BR) • amplitude of the Ca^2+ transient (Amp), • CTD90: Ca^2+ transient duration at 90% (time to 90% of the initial base value).
The presence of various ‘arrhythmia-like’ activities were also noted during the experimental periods. […]

[6] = target: hERG potassium channel (Homo sapiens (Human), UniProt Q12809); assay: Effect on membrane potassium current IKr in hERG transfected CHO cells, Protocol 1 (QPatch); assay type: cell-based
Chain of hERG potassium channel (Q12809 whole entry): as above
How it was run: as §15

[7] = test system: OCI-AML3 cells; assay: Proliferation assay (spheroid growth, 8 days), OCI-AML3; assay type: cell-based, human; conditions: OCI-AML3, 8 days, hydrochloride
How it was run: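 Cells were seeded at 200 (MOLM14, OCI-AML3) or 300 (KO-52) per well in ultra-low attachment round-bottom plates with compounds at several concentrations, 0.3% DMSO, and grown 8 days at 37° C. Spheroid confluence was imaged on day 8; IC50 came from a variable-slope fit normalized to DMSO and high-dose reference compound.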

With CCN(C(=O)c1cc(F)ccc1Oc1nncnc1N1CCC2(C1)CN([C@H](CCCN(C)CCOC)C(C)C)C2)C(C)C [Compound 70, (R)-N-ethyl-5-fluoro-N-isopropyl-2-((5-(2-(6-((2-methoxyethyl)(methyl)amino)-2-methylhexan-3-yl)-2,6-diazaspiro[3.4]octan-6-yl)-1,2,4-triazin-6-yl)oxy)benzamide oxalate] the “Color @ 0.1 μM (hazard score)” value [1] was “Green”, the “Color @ 0.2 μM (hazard score)” value ([1]; iCell Cardiomyocytes2, 0.2 μM) was “Green” and the “Color @ 0.5 μM (hazard score)” value ([1]; iCell Cardiomyocytes2, 0.5 μM) was “Green”. The “Color @ 1 μM (hazard score)” value [1] was “Green”, the “Color @ 2.5 μM (hazard score)” value ([1]; iCell Cardiomyocytes2, 2.5 μM) was “Green” and the “Color @ 5 μM (hazard score)” value ([1]; iCell Cardiomyocytes2, 5 μM) was “Green”. For the same compound, the “median days of survival” value ([2]; 30 mg/kg PO daily for 28 days) was 75.5 days and the “median days of survival” value ([2]; 50 mg/kg PO daily for 28 days) was 58.5 days.

CCN(C(=O)c1cc(F)ccc1Oc1nncnc1N1CCC2(C1)CN([C@H](CCCNCCOC)C(C)C)C2)C(C)C [Compound 11, (R)-N-ethyl-5-fluoro-N-isopropyl-2-((5-(2-(6-((2-methoxyethyl)amino)-2-methylhexan-3-yl)-2,6-diazaspiro[3.4]octan-6-yl)-1,2,4-triazin-6-yl)oxy)benzamide] was tested, and the “Color @ 0.1 μM (hazard score)” value ([1]; range 0.1-30 μM) was “Green”, the “Color @ 0.3 μM (hazard score)” value ([1]; iCell Cardiomyocytes2, 0.3 μM) was “Green” and the “Color @ 1 μM (hazard score)” value ([1]; range 0.1-30 μM) was “Green”. For the same compound, the “Color @ 3 μM (hazard score)” value ([1]; iCell Cardiomyocytes2, 3 μM) was “Green”, the “Color @ 10 μM (hazard score)” value ([1]; iCell Cardiomyocytes2, 10 μM) was “Green” and the “Color @ 30 μM (hazard score)” value ([1]; iCell Cardiomyocytes2, 30 μM) was “Green”. The IC50 at 5 min [3] was greater than 30.2 µM.

With CCN(C(=O)c1cc(F)ccc1Oc1nncnc1N1CCC2(C1)CN([C@H](CCCNC)C(C)C)C2)C(C)C [Compound 19, (R)-N-ethyl-5-fluoro-N-isopropyl-2-((5-(2-(2-methyl-6-(methylamino)hexan-3-yl)-2,6-diazaspiro[3.4]octan-6-yl)-1,2,4-triazin-6-yl)oxy)benzamide hydrochloride] the IC50 [4] was 0.058 µM, the “Color @ 0.1 μM (hazard score)” value ([5]; 0.1 μM) was “Green” and the “Color @ 0.2 μM (hazard score)” value ([5]; 0.2 μM) was “Green”. The “Color @ 0.5 μM (hazard score)” value ([5]; 0.5 μM) was “Green”, the “Color @ 1 μM (hazard score)” value ([5]; 1 μM) was “Green” and the “Color @ 2.5 μM (hazard score)” value ([5]; 2.5 μM) was “Green”. The “Color @ 5 μM (hazard score)” value ([5]; 5 μM) was “Green”, the IC50 [6] was greater than 30.2 µM and the IC50 [7] was 0.16 µM.
